Test results from patent US10434181B2, “Oligomer-containing benzamide-based compounds” (Nektar Therapeutics, priority 2012, dated 2019).

What was measured:
human hepatocytes = assay: MetID determination in human hepatocytes; format: in vitro ADME
Experimental: (§1) Cryopreserved human and Sprague-Dawley rat hepatocytes were thawed in a 37° C. water bath. […] Samples were obtained from separate plates for each time point during the incubation. At each sampling time, the plates were removed from the incubator, quenched by adding 100 μL cold acetonitrile, and placed in an ice bath until centrifugation at 4,000 rpm for 30 minutes at 4° C. Supernatants were stored at or below −70° C. until LC-MS/MS analysis could be conducted. The liquid chromatography system used was Agilent 1100 Autosampler, Binary Pump, DAD and Column Enclosure. Tandem mass spectrometry was conducted using a Thermo DECA XP MAX Ion Trap Mass Spectrometer. The ion source was Electrospray (+) and the LC column used was a Varian, Polaris 5 C18-A (250×2.1 mm, 5 micron) column.
(§2) Metabolic pathways of metoclopramide and conjugates were determined in rat and human hepatocytes. N-dealkylation was the major metabolic pathway for metoclopramide in rats, and metabolism in human hepatocytes was minimal. […] FIG. 2 and FIG. 3 show the metabolic pathway of for mPEG1-N-metoclopramide and mPEG4-N-metoclopramide, respectively. […] In this figure, different metabolites for each conjugate are denoted with the “M” and correspond to the designation provided in the figure for a given conjugate. For example, metabolite M1 for mPEG1-N-metoclopramide in Table 6 corresponds to M1 in FIG. 2, metabolite M2 for mPEG4-N-metoclopramide in Table 6 corresponds to M2 in FIG. 3 and metabolite M3 mPEG8-N-metoclopramide in Table 6 corresponds to M3 in FIG. 4.

[1] = test system: Sprague-Dawley rat hepatocytes; assay: MetID determination in rat hepatocytes; format: in vitro ADME
Experimental: as §1, §2

[2] = incubation of 10 μM mPEG8-N-metoclopramide, parent and its metabolites M (FIG. 4)
[3] = incubation of 10 μM mPEG4-N-metoclopramide, parent and its metabolites M (FIG. 3)

| SMILES | % of Total Metabolism, Human Hep 1 hr (human hepatocytes; [2]) | % of Total Metabolism, Human Hep 4 hr (human hepatocytes; [2]) | % of Total Metabolism, Rat Hep 1 hr [1, 2] | % of Total Metabolism, Rat Hep 4 hr [1, 2] | % of Total Metabolism, Rat Hep 1 hr [1, 3] | % of Total Metabolism, Rat Hep 4 hr [1, 3] | % of Total Metabolism, Human Hep 4 hr (human hepatocytes; [3]) [%] |
| --- | --- | --- | --- | --- | --- | --- | --- |
| CCN(CCNC(=O)c1cc(Cl)c(N)cc1OC)CCOCCOCCOCCOCCOCCOCCO [M16] | trace | trace | trace | trace |  |  |  |
| CCN(CCO)CCNC(=O)c1cc(Cl)c(N)cc1OC [M6] |  |  | 1% | 2.2% | trace | trace |  |
| CCN(CCNC(=O)c1cc(Cl)c(N)cc1OC)CCOCCO [M7] | trace | trace | 1.2% | 2.2% | 1.7% | 1.2% |  |
| CCN(CCNC(=O)c1cc(Cl)c(N)cc1OC)CCOCCOCCO [M12] |  | trace | Trace | 0.7% |  |  |  |
| CCN(CCNC(=O)c1cc(Cl)c(N)cc1OC)CCOCCOCCOCCO [M9] | trace | trace | Trace | 1.6% | 8.8% | 24.8% | 1.9 |
| CCN(CCNC(=O)c1cc(Cl)c(N)cc1OC)CCOCCOCCOCCOCCO [M14] | trace | trace | Trace | 2% |  |  |  |
| CCN(CCO)CCNC(=O)c1cc(Cl)c(N)cc1OC [M10] |  |  |  | trace |  |  |  |
| CCN(CCNC(=O)c1cc(Cl)c(N)cc1OC)CCOCCO [M11] |  |  | Trace | 3.5% |  |  |  |
| CCN(CCNC(=O)c1cc(Cl)c(N)cc1OC)CCOCCOCCOCCO [M13] |  | 2.7% | 3.0% | 12.6% |  |  |  |
| CCN(CCNC(=O)c1cc(Cl)c(N)cc1OC)CCOCCOCCOCCOCCOCCO [M15] | trace | trace | Trace | 1% |  |  |  |
| CCN(CCNC(=O)c1cc(Cl)c(N)cc1OC)CCOCCOCCO [M8] | trace | trace | 1.3% | 2.5% | trace | 1.5% |  |
| CCN(CCNC(=O)c1cc(Cl)c(N)cc1OC)CCOCCOCCOCCOCCOCCOCCOCCO [M17] | trace | trace | trace | trace |  |  |  |
